# Counter-ions that a name gives are not always drawn.
row,melting point [°C],SMILES
1,142 to 144,"CCC(CC)Oc1cc(C)nc(Nc2c(C)cc(C)cc2C)c1CNC(=O)CCl [Example 188, 2-Chloro-N-[4-(1-ethyl-propoxy)-6-methyl-2-(2,4,6-trimethyl-phenylamino)-pyridin-3-ylmethyl]-acetamide]"
2,121 to 123,"CCC(CC)Oc1nc(C)nc(Nc2c(C)cc(C)cc2C)c1CO [Example 274, [4-(1-Ethyl-propoxy)-2-methyl-6-(2,4,6-trimethyl-phenylamino)-pyrimidin-5-yl]-methanol]"
3,118 to 120,"CCC(CC)Oc1nc(C)nc(Nc2c(C)cc(C)cc2C)c1C(=O)O [Example 273, 4-(1-Ethyl-propoxy)-2-methyl-6-(2,4,6-trimethyl-phenylamino)-pyrimidine-5-carboxylic acid]"
4,145 to 148,"CCC(O)C(CC)Nc1cc(C)nc(Oc2c(C)cc(Cl)cc2C)c1CO (stereo not drawn) [Example 139, 4-[2-(4-Chloro-2,6-dimethyl-phenoxy)-3-hydroxymethyl-6-methyl-pyridin-4-ylamino]-hexan-3-ol]"
5,131 to 133,"C#CC(CC)Nc1cc(C)nc(Oc2c(C)cc(C)cc2C)c1C(=O)O (stereo not drawn) [Example 140, 4-(1-Ethyl-prop-2-ynylamino)-6-methyl-2-(2,4,6-trimethyl-phenoxy)-nicotinic acid]"
6,120 to 122,"CCC(CC)Oc1cc(C)nc(Nc2c(C)cc(C)cc2C)c1C(=O)n1ccnc1 [Example 183, [4-(1-Ethyl-propoxy)-6-methyl-2-(2,4,6-trimethyl-phenylamino)-pyridin-3-yl]-imidazol-1-yl-methanone]"
7,158 to 160,"CCC(CC)Nc1cc(C)nc2c1nc(N)n2-c1c(C)cc(C)cc1C [Example 283, N7-(1-Ethyl-propyl)-5-methyl-3-(2,4,6-trimethyl-phenyl)-3H-imidazo[4,5-b]pyridine-2,7-diamine]"
8,197 to 200,"CCC(CC)Oc1cc(C)nc(Nc2c(C)cc(C)cc2C)c1C(=O)N(C)C (as salt: HCl) [Example 193, 4-(1-Ethyl-propoxy)-6,N,N-trimethyl-2-(2,4,6-trimethyl-phenylamino)-nicotinamide]"
9,96 to 98,"CCC(CC)Oc1cc(C)nc(Nc2c(C)cc(C)cc2C)c1CC(C(=O)OC)C(=O)OC [Example 185, 2-[4-(1-Ethyl-propoxy)-6-methyl-2-(2,4,6-trimethyl-phenylamino)-pyridin-3-ylmethyl]-malonic acid dimethyl ester]"
10,134 to 139,"Cc1cc(C)c(Oc2nc(C)cc(C(O)C(F)(F)F)c2C)c(C)c1 (stereo not drawn) [Example 212, 1-[3,6-Dimethyl-2-(2,4,6-trimethyl-phenoxy)-pyridin-4-yl]-2,2,2-trifluoro-ethanol]"
11,117 to 119,"CCC(CC)Nc1cc(C)nc(Oc2c(C)cc(C)cc2C)c1CN [Example 248, [3-Aminomethyl-6-methyl-2-(2,4,6-trimethyl-phenoxy)-pyridin-4-yl]-(1-ethyl-propyl)-amine]"
12,106 to 109,"CCC(CC)Oc1cc(C)nc(Oc2c(C)cc(C)cc2C)c1[N+](=O)[O-] [Example 173, 4-(1-Ethyl-propoxy)-6-methyl-3-nitro-2-(2,4,6-trimethyl-phenoxy)-pyridine]"
13,98 to 100,"CCC(CC)Oc1cc(C)nc(Nc2c(C)cc(C)cc2C)c1 [Example 203, [4-(1-Ethyl-propoxy)-6-methyl-pyridin-2-yl]-(2,4,6-trimethyl-phenyl)-amine]"
14,174 to 176,"CCC(CC)Oc1nc(C)nc(Nc2c(C)cc(C)cc2C)c1C(N)=O [Example 233, 4-(1-Ethyl-propoxy)-2-methyl-6-(2,4,6-trimethyl-phenylamino)-pyrimidine-5-carboxylic acid amide]"
15,204 to 206,"CCC(CC)Nc1cc(C)nc(Nc2c(C)cc(C)cc2C)c1C(N)=O [Example 232, 4-(1-Ethyl-propylamino)-6-methyl-2-(2,4,6-trimethyl-phenylamino)-nicotinamide]"
16,151 to 153,"CCC(CC)Oc1cc(C)nc2c1n(C)c(=O)n2-c1c(C)cc(C)cc1C [Example 280, 7-(1-Ethyl-propoxy)-1,5-dimethyl-3-(2,4,6-trimethyl-phenyl)-1,3-dihydro-imidazo[4,5-b]pyridin-2-one]"
17,79 to 82,"CCC(CC)Oc1cc(C)nc(Nc2c(C)cc(C)cc2C)c1NC(=O)CCl [Example 237, 2-Chloro-N-[4-(1-ethyl-propoxy)-6-methyl-2-(2,4,6-trimethyl-phenylamino)-pyridin-3-yl]-acetamide]"
18,101 to 103,"CCC(CC)Nc1cc(C)nc2c1nc(C)n2-c1c(C)cc(C)cc1C [Example 282, [2,5-Dimethyl-3-(2,4,6-trimethyl-phenyl)-3H-imidazo[4,5-b]pyridin-7-yl]-(1-ethyl-propyl)-amine]"
19,55 to 57,"CCOC(=S)SCc1c(OC(CC)CC)cc(C)nc1Nc1c(C)cc(C)cc1C [Example 190, Dithiocarbonic acid O-ethyl ester S-[4-(1-ethyl-propoxy)-6-methyl-2-(2,4,6-trimethyl-phenylamino)-pyridin-3-ylmethyl] ester]"
20,184 to 186,"CCC(CC)Oc1cc(C)nc2c1[nH]c(=O)n2-c1c(C)cc(C)cc1C [Example 279, 7-(1-Ethyl-propoxy)-5-methyl-3-(2,4,6-trimethyl-phenyl)-1,3-dihydro-imidazo[4,5-b]pyridin-2-one]"

# More lines, now with the values behind:
row,SMILES,melting point [°C]
1,CCC(CC)Oc1cc(C)nc(Nc2c(C)cc(C)cc2C)c1CN(C)C.Cl,85 to 88
2,"CCN(C)c1cc(C)nc(Oc2c(C)cc(C)cc2C)c1C (as salt: HCl) [Example 74, [3,6-Dimethyl-2-(2,4,6-trimethyl-phenoxy)-pyridin-4-yl]-ethyl-methyl-amine]",173 to 174
3,"CCC(CC)Nc1cc(C)nc(Sc2c(C)cc(C)cc2C)c1C [Example 69, [3,6-Dimethyl-2-(2,4,6-trimethyl-phenylsulfanyl)-pyridin-4-yl]-(1-ethyl-propyl)-amine]",108 to 110
4,"CCC(CC)Oc1cc(C)nc(Oc2c(C)cc(COC)cc2C)c1C [Example 67, 4-(1-Ethyl-propoxy)-2-(4-methoxymethyl-2,6-dimethyl-phenoxy)-3,6-dimethyl-pyridine]",58 to 60
5,"CCC(CC)Nc1cc(C)nc(Oc2c(C)cc(C)cc2C)c1NC(C)=O [Example 98, N-[4-(1-Ethyl-propylamino)-6-methyl-2-(2,4,6-trimethyl-phenoxy)-pyridin-3-yl]-acetamide]",154 to 156
6,"CCC(COC)Nc1cc(C)nc(Oc2c(C=O)cccc2OC)c1[N+](=O)[O-] (stereo not drawn) [Example 114, 3-Methoxy-2-[4-(1-methoxymethyl-propylamino)-6-methyl-3-nitro-pyridin-2-yloxy]-benzaldehyde]",126.5 to 130.5
7,"CCNc1cc(C)nc(Sc2c(C)cc(C)cc2C)c1C [Example 71, [3,6-dimethyl-2-(2,4,6-trimethyl-phenylsulfanyl)-pyridin-4-yl]-ethyl-amine]",114 to 116
8,"CCC(CC)Nc1cc(C)nc(Oc2c(C)cc(Cl)cc2C)c1N [Example 97, 2-(4-Chloro-2,6-dimethyl-phenoxy)-N4-(1-ethyl-propyl)-6-methyl-pyridine-3,4-diamine]",72 to 74
9,"CCC(COC)Nc1cc(C)nc(Oc2c(OC)cc(OC)cc2OC)c1[N+](=O)[O-] (stereo not drawn) [Example 114, (1-Methoxymethyl-propyl)-[6-methyl-3-nitro-2-(2,4,6-trimethoxy-phenoxy)-pyridin-4-yl]-amine]",126.8 to 129.5
10,"CCN(CC)c1cc(C)nc(Oc2c(C)cc(Cl)cc2C)c1C (as salt: HCl) [Example 78, [2-(4-chloro-2,6-dimethyl-phenoxy)-3,6-dimethyl-pyridin-4-yl]-diethyl-amine]",184 to 185
11,"CCCN(CC)c1cc(C)nc(Oc2c(C)cc(Cl)cc2C)c1C (as salt: HCl) [Example 77, [2-(4-chloro-2,6-dimethyl-phenoxy)-3,6-dimethyl-pyridin-4-yl]-ethyl-propyl-amine]",74 to 76
12,"CCN(CC)c1cc(C)nc(Oc2c(C)cc(C)cc2C)c1C (as salt: HCl) [Example 73, [3,6-dimethyl-2-(2,4,6-trimethyl-phenoxy)-pyridin-4-yl]-diethyl-amine]",180 to 181
13,"CCC(CC)Oc1nc(C)nc(Oc2c(C)cc(C)cc2C)c1C#N [Example 35, 4-(1-Ethyl-propoxy)-2-methyl-6-(2,4,6-trimethyl-phenoxy)-pyrimidine-5-carbonitrile]",128 to 130
14,"CCC(Nc1cc(C)nc(Oc2c(C)cc(Cl)cc2C)c1CO)C(C)O (stereo not drawn) [Example 138, 3-[2-(4-Chloro-2,6-dimethyl-phenoxy)-3-hydroxymethyl-6-methyl-pyridin-4-ylamino]-pentan-2-ol]",180 to 182
15,"CCCCN(CC)c1cc(C)nc(Oc2c(C)cc(Cl)cc2C)c1C (as salt: HCl) [Example 76, Butyl-[2-(4-chloro-2,6-dimethyl-phenoxy)-3,6-dimethyl-pyridin-4-yl]-ethyl-amine]",177 to 178
16,"CCCN(CC)c1cc(C)nc(Oc2c(C)cc(C)cc2C)c1C (as salt: HCl) [Example 72, [3,6-Dimethyl-2-(2,4,6-trimethyl-phenoxy)-pyridin-4-yl]-ethyl-propyl-amine]",167 to 169
